Results reported in EP2818471A1, “Nitrogen bicyclic compounds as inhibitors for Scyl1 and Grk5” (Max-Planck-Gesellschaft zur Förderung der Wissenschaften …, priority 2013, dated 2014).

Tested on: beta-TC6 cells
Assay: Insulin HTRF assay, relative activity Ar normalized to sunitinib
Assay type: cell-based
Settings: Mus musculus, normalized to positive control sunitinib (5 µM = 100%), Table 10
Outline: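 Relative activity Ar was scaled between 0% and 100% controls, with sunitinib at 5 µM f.c. as reference. Insulin released by beta-TC6 cells was quantified by sandwich HTRF (Eu-cryptate/XL665 antibodies, 120 min RT). Cells had been seeded 24 or 48 h, then treated 2–4 h at 37°C in induction buffer, 0.5% DMSO.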

Cn1cc(-c2cn3c(-c4ccc(O)cc4)cnc3cn2)cn1 [compound 327, 4-[6-(1-methylpyrazol-4-yl)imidazo[1,2-a]pyrazin-3-yl]phenol]
Emax: 20 to 50%

CCOc1cccc(-c2cn3c(-c4ccc(CCC(=O)O)cc4)cnc3cn2)c1 [compound 328, 3-[4-[6-(3-ethoxyphenyl)imidazo[1,2-a]pyrazin-3-yl]phenyl]propanoic acid]
Emax: ≥ 100%

O=C(O)CCc1ccc(-c2cnc3cnc(-c4cccc(Cl)c4)cn23)cc1 [compound 329, 3-[4-[6-(3-chlorophenyl)imidazo[1,2-a]pyrazin-3-yl]phenyl]propanoic acid]
Emax: 20 to 50%

Cc1ccccc1-c1cn2c(-c3ccc(CCC(=O)O)cc3)cnc2cn1 [compound 330, 3-[4-[6-(o-tolyl)imidazo[1,2-a]pyrazin-3-yl]phenyl]propanoic acid]
Emax: 20 to 50%

O=C(O)CCc1ccc(-c2cnc3cnc(-c4ccccc4Cl)cn23)cc1 [compound 331, 3-[4-[6-(2-chlorophenyl)imidazo[1,2-a]pyrazin-3-yl]phenyl]propanoic acid]
Emax: 50 to 100%

O=C(O)CCc1ccc(-c2cnc3cnc(-c4cccs4)cn23)cc1 [compound 332, 3-[4-[6-(2-thienyl)imidazo[1,2-a]pyrazin-3-yl]phenyl]propanoic acid]
Emax: 20 to 50%

O=C(O)CCc1ccc(-c2cnc3cnc(-c4ccccc4CO)cn23)cc1 [compound 333, 3-[4-[6-[2-(hydroxymethyl)phenyl]imidazo[1,2-a]pyrazin-3-yl]phenyl]propanoic acid]
Emax: 20 to 50%

Cc1cccc(-c2cn3c(-c4ccc(CCC(=O)O)cc4)cnc3cn2)c1C [compound 334, 3-[4-[6-(2,3-dimethylphenyl)imidazo[1,2-a]pyrazin-3-yl]phenyl]propanoic acid]
Emax: 50 to 100%

N#Cc1ccc(-c2cnc3cnc(-c4ccccc4)cn23)cc1 [compound 335, 4-(6-phenylimidazo[1,2-a]pyrazin-3-yl)benzonitrile]
Emax: 20 to 50%

N#Cc1ccc(-c2cnc3cnc(-c4ccsc4)cn23)cc1 [compound 336, 4-[6-(3-thienyl)imidazo[1,2-a]pyrazin-3-yl]benzonitrile]
Emax: 20 to 50%

N#Cc1ccc(-c2cnc3cnc(-c4ccc(Cl)cc4)cn23)cc1 [compound 337, 4-[6-(4-chlorophenyl)imidazo[1,2-a]pyrazin-3-yl]benzonitrile]
Emax: 50 to 100%

N#Cc1ccc(-c2cnc3cnc(-c4ccc(CO)cc4)cn23)cc1 [compound 338, 4-[6-[4-(hydroxymethyl)phenyl]imidazo[1,2-a]pyrazin-3-yl]benzonitrile]
Emax: 20 to 50%

N#Cc1ccc(-c2cnc3cnc(-c4cccs4)cn23)cc1 [compound 339, 4-[6-(2-thienyl)imidazo[1,2-a]pyrazin-3-yl]benzonitrile]
Emax: 20 to 50%

COc1cc(-c2cnc3cnc(-c4ccc(N5CCN(C)CC5)nc4)cn23)cc(OC)c1OC [compound 340, 6-[6-(4-methylpiperazin-1-yl)-3-pyridyl]-3-(3,4,5-trimethoxyphenyl)imidazo[1,2-a]pyrazine]
Emax: 20 to 50%

CN(C)c1cccc(-c2cnc3cnc(-c4ccncc4)cn23)c1 [compound 342, N,N-dimethyl-3-[6-(4-pyridyl)imidazo[1,2-a]pyrazin-3-yl]aniline]
Emax: 20 to 50%

CN(C)c1cccc(-c2cnc3cnc(-c4ccsc4)cn23)c1 [compound 343, N,N-dimethyl-3-[6-(3-thienyl)imidazo[1,2-a]pyrazin-3-yl]aniline]
Emax: 50 to 100%

CN(C)c1cccc(-c2cnc3cnc(-c4ccc(CO)cc4)cn23)c1 [compound 344, [4-[3-[3-(dimethylamino)phenyl]imidazo[1,2-a]pyrazin-6-yl]phenyl]methanol]
Emax: 20 to 50%

CN(C)c1cccc(-c2cnc3cnc(-c4cccs4)cn23)c1 [compound 345, N,N-dimethyl-3-[6-(2-thienyl)imidazo[1,2-a]pyrazin-3-yl]aniline]
Emax: 20 to 50%

COc1cc(OC)cc(-c2cn3c(-c4cccc(N(C)C)c4)cnc3cn2)c1 [compound 346, 3-[6-(3,5-dimethoxyphenyl)imidazo[1,2-a]pyrazin-3-yl]-N,N-dimethyl-aniline]
Emax: 20 to 50%

Clc1ccc(-c2cnc3cnc(-c4ccncc4)cn23)cc1 [compound 347, 3-(4-chlorophenyl)-6-(4-pyridyl)imidazo[1,2-a]pyrazine]
Emax: 20 to 50%

Clc1ccc(-c2cnc3cnc(-c4ccsc4)cn23)cc1 [compound 348, 3-(4-chlorophenyl)-6-(3-thienyl)imidazo[1,2-a]pyrazine]
Emax: 50 to 100%

Clc1ccc(-c2cnc3cnc(-c4cccs4)cn23)cc1 [compound 349, 3-(4-chlorophenyl)-6-(2-thienyl)imidazo[1,2-a]pyrazine]
Emax: 20 to 50%

CC(=O)Nc1cccc(-c2cn3c(-c4ccc(F)c(Cl)c4)cnc3cn2)c1 [compound 350, N-[3-[3-(3-chloro-4-fluoro-phenyl)imidazo[1,2-a]pyrazin-6-yl]phenyl]acetamide]
Emax: 20 to 50%

Fc1ccc(-c2cnc3cnc(-c4ccco4)cn23)cc1Cl [compound 351, 3-(3-chloro-4-fluoro-phenyl)-6-(2-furyl)imidazo[1,2-a]pyrazine]
Emax: 20 to 50%

FC(F)(F)Oc1cccc(-c2cnc3cnc(-c4cccnc4)cn23)c1 [compound 352, 6-(3-pyridyl)-3-[3-(trifluoromethoxy)phenyl]imidazo[1,2-a]pyrazine]
Emax: 20 to 50%

O=C(NCCO)c1cccc(-c2cn3c(-c4cccc(OC(F)(F)F)c4)cnc3cn2)c1 [compound 353, N-(2-hydroxyethyl)-3-[3-[3-(trifluoromethoxy)phenyl]imidazo[1,2-a]pyrazin-6-yl]benzamide]
Emax: 20 to 50%

CN1CCN(C(=O)c2cccc(-c3cnc4cnc(-c5ccc6c(c5)OCO6)cn34)c2)CC1 [compound 355, [3-[6-(1,3-benzodioxol-5-yl)imidazo[1,2-a]pyrazin-3-yl]phenyl]-(4-methylpiperazin-1-yl)methanone]
Emax: 20 to 50%

CN1CCN(C(=O)c2cccc(-c3cnc4cnc(-c5ccc6c(ccn6C)c5)cn34)c2)CC1 [compound 358, [3-[6-(1-methylindol-5-yl)imidazo[1,2-a]pyrazin-3-yl]phenyl]-(4-methylpiperazin-1-yl)methanone]
Emax: 20 to 50%

CN1CCN(C(=O)c2cccc(-c3cnc4cnc(-c5ccc(CNc6ccccc6)cc5)cn34)c2)CC1 [compound 359, [3-[6-[4-(anilinomethyl)phenyl]imidazo[1,2-a]pyrazin-3-yl]phenyl]-(4-methylpiperazin-1-yl)methanone]
Emax: 10 to 20%

OCc1ccc(-c2cn3c(-c4cccc(Cl)c4)cnc3cn2)cc1 [compound 360, [4-[3-(3-chlorophenyl)imidazo[1,2-a]pyrazin-6-yl]phenyl]methanol]
Emax: 20 to 50%

COc1ccc(-c2cnc3cnc(-c4ccc(CO)cc4)cn23)cc1 [compound 361, [4-[3-(4-methoxyphenyl)imidazo[1,2-a]pyrazin-6-yl]phenyl]methanol]
Emax: 50 to 100%

COc1ccc(-c2cnc3cnc(-c4cccs4)cn23)cc1 [compound 362, 3-(4-methoxyphenyl)-6-(2-thienyl)imidazo[1,2-a]pyrazine]
Emax: 20 to 50%

COc1ccc(-c2cnc3cnc(-c4ccc(N)nc4)cn23)cc1 [compound 363, 5-[3-(4-methoxyphenyl)imidazo[1,2-a]pyrazin-6-yl]pyridin-2-amine]
Emax: 20 to 50%

Oc1cccc(-c2cnc3cnc(-c4cc5ccccc5s4)cn23)c1 [compound 364, 3-[6-(benzothiophen-2-yl)imidazo[1,2-a]pyrazin-3-yl]phenol]
Emax: 50 to 100%

Oc1cccc(-c2cnc3cnc(-c4ccc(Cl)cc4)cn23)c1 [compound 365, 3-[6-(4-chlorophenyl)imidazo[1,2-a]pyrazin-3-yl]phenol]
Emax: 20 to 50%

Oc1cccc(-c2cnc3cnc(/C=C/c4ccccc4)cn23)c1 [compound 366, 3-[6-[(E)-styryl]imidazo[1,2-a]pyrazin-3-yl]phenol]
Emax: 20 to 50%

CN1CCN(c2ccc(-c3cn4c(-c5cccc(O)c5)cnc4cn3)cc2)CC1 [compound 367, 3-[6-[4-(4-methylpiperazin-1-yl)phenyl]imidazo[1,2-a]pyrazin-3-yl]phenol]
Emax: 20 to 50%

Oc1cccc(-c2cnc3cnc(-c4cccc(Cl)c4)cn23)c1 [compound 368, 3-[6-(3-chlorophenyl)imidazo[1,2-a]pyrazin-3-yl]phenol]
Emax: 20 to 50%

COc1ccc(-c2cn3c(-c4cccc(O)c4)cnc3cn2)cn1 [compound 369, 3-[6-(6-methoxy-3-pyridyl)imidazo[1,2-a]pyrazin-3-yl]phenol]
Emax: 20 to 50%

Oc1cccc(-c2cnc3cnc(-c4cccs4)cn23)c1 [compound 370, 3-[6-(2-thienyl)imidazo[1,2-a]pyrazin-3-yl]phenol]
Emax: 20 to 50%

COc1cc(OC)cc(-c2cn3c(-c4cccc(O)c4)cnc3cn2)c1 [compound 371, 3-[6-(3,5-dimethoxyphenyl)imidazo[1,2-a]pyrazin-3-yl]phenol]
Emax: 20 to 50%

COc1cccc(-c2cn3c(-c4cccc(O)c4)cnc3cn2)c1F [compound 372, 3-[6-(2-fluoro-3-methoxy-phenyl)imidazo[1,2-a]pyrazin-3-yl]phenol]
Emax: 20 to 50%

OCc1ccc(-c2cnc3cnc(-c4ccco4)cn23)cc1 [compound 373, [4-[6-(2-furyl)imidazo[1,2-a]pyrazin-3-yl]phenyl]methanol]
Emax: 20 to 50%

OCc1ccc(-c2cnc3cnc(-c4ccc(Cl)cc4Cl)cn23)cc1 [compound 374, [4-[6-(2,4-dichlorophenyl)imidazo[1,2-a]pyrazin-3-yl]phenyl]methanol]
Emax: 20 to 50%

O=C(NC1CCCC1)c1ccc(-c2cn3c(-c4ccc(CO)cc4)cnc3cn2)cc1 [compound 375, N-cyclopentyl-4-[3-[4-(hydroxymethyl)phenyl]imidazo[1,2-a]pyrazin-6-yl]benzamide]
Emax: 20 to 50%

OCc1cccc(-c2cnc3cnc(-c4ccccc4)cn23)c1 [compound 376, [3-(6-phenylimidazo[1,2-a]pyrazin-3-yl)phenyl]methanol]
Emax: 20 to 50%
